Test results: patent publication US5840917A, “Phosphorylamides, their preparation and use” (Takeda Chemical Industries, Ltd., priority 1995, dated 1998)
Where two headings read alike, the source gives them in different places.

Tests used:
[1] = molecular target: T1, Helicobacter pylori-derived urease (Helicobacter pylori, UniProt P69996); assay: Screening of urease inhibitors (ammonia yield from urea); format: biochemical
T1 construct: an urease solution prepared from Helicobacter pylori; endogenous in cells
Protocol: Screening of Urease Inhibitors
One hundred (100) μl of 100 mM Bis-Tris buffer (pH 6.5) and 60 μl of an urease solution prepared from Helicobacter pylori were added to 20 μl of a test drug dissolved in 0.1% dimethylformamide solution. The mixture was incubated at room temperature for 30 minutes, and then 20 μl of 100 mM urea was added. The mixture was kept at room temperature for 10 minutes, and then the yielded ammonia in the incubation mixture was measured using a commercial test kit (Ammonia Test Wako®; Wako Pure Chemical). The percent inhibition against the yield of ammonia in the solvent addition group was calculated to obtain the IC50 value.

[2] = test system: Helicobacter pylori (CPY-433 F4); assay: Bacteria eradication effect of urease inhibitor (in vivo) in infected mice; settings: male ICR mice, 10 mg/kg p.o. twice daily, lansoprazole 30 mg/kg s.c. once daily before first dose
[3] = test system: Helicobacter pylori CPY 433 F4; assay: Bacteria eradication effect of flurofamide in infected mice; format: in vivo; settings: male Crj:ICR mice; 100 mg/kg p.o. twice daily, 7 days, in 0.5% methylcellulose containing 1% sodium bicarbonate; * p<0.05 (chi^2 test); control 0/4
Protocol: Bacteria Eradication Effect of Flurofamide
To 5-week-aged male Crj:ICR mice previously fasted for 30 hours, Helicobacter pylori CPY 433 F4 was inoculated intragastrically at 10^7 CFU per mouse. One week after the infection, a test compound which was suspended in 0.5% methylcellulose containing 1% sodium bicarbonate was orally administered at 100 mg/kg twice daily for 7 days. On the next day after the final administration, the stomach of the infected mouse was excised and homogenated. A series of 10-fold dilutions were inoculated to modified Skirrow medium supplemented with activated charcoal and incubated at 37° C. for 4 days under slightly aerobic conditions. The bacteria eradication effect was determined by investigating whether bacterial growth was seen or not.

[4] = 4 days for therapy, control 0/5

T1 sequence (P69996 whole entry, looked up): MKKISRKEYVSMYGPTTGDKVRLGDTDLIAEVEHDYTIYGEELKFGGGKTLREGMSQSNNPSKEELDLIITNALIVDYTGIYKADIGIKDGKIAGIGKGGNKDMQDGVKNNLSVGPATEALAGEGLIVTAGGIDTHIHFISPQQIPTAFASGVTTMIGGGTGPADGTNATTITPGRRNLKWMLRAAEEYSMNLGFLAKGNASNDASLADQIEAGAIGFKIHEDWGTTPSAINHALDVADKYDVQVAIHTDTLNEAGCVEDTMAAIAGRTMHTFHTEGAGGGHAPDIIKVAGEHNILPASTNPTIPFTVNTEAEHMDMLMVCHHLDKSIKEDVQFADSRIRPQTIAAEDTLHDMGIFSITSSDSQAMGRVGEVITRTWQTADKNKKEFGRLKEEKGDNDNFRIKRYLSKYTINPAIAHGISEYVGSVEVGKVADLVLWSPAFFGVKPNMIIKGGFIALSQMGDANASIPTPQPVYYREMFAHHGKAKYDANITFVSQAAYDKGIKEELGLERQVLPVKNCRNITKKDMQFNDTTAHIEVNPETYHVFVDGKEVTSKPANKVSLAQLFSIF

Row | Structure (SMILES) | IC50 [1] | Eradication Rate ([2]; 2 days for therapy) | also measured
1 | NP(N)(=O)NC(=O)c1ccsc1 [Example 2, N-(Diaminophosphinyl)-3-thiophenecarboxamide] | 16 nM |  | Eradication Rate [2, 4]: 2/5
2 | Cc1ccc(C(=O)NP(N)(N)=O)s1 [Example 3, N-(Diaminophosphinyl)-5-methyl-2-thiophenecarboxamide] | 5.5 nM |  | Eradication Rate [2, 4]: 2/5
3 | NP(N)(=O)NC(=O)c1ccc(Cl)s1 [Example 5, N-(Diaminophosphinyl)-5-chloro-2-thiophenecarboxamide] | 3 nM |  | Eradication Rate [2, 4]: 3/5
4 | CCc1ccc(C(=O)NP(N)(N)=O)s1 [Example 9, N-(Diaminophosphinyl)-5-ethyl-2-thiophenecarboxamide] | 13 nM | 1/5 | 
5 | NP(N)(=O)NC(=O)c1csc(Br)c1 [Example 11, N-(Diaminophosphinyl)-5-bromo-3-thiophenecarboxamide] | 4.2 nM | 1/5 | 
6 | N#Cc1ccc(C(=O)NP(N)(N)=O)s1 [Example 12, N-(Diaminophosphinyl)-5-cyano-2-thiophenecarboxamide] | 3.6 nM | 1/5 | 
7 | Cc1sccc1C(=O)NP(N)(N)=O [Example 15, N-(Diaminophosphinyl)-2-methyl-3-thiophenecarboxamide] | 1.7 nM | 2/5 | 
8 | CC(=O)c1ccc(C(=O)NP(N)(N)=O)s1 [Example 17, N-(Diaminophosphinyl)-5-acetyl-2-thiophenecarboxamide] | 8.2 nM | 1/5 | 
9 | NP(N)(=O)NC(=O)c1sccc1C(F)F [Example 19, N-(Diaminophosphinyl)-3-difluoromethyl-2-thiophenecarboxamide] | 4.6 nM | 1/5 | 
10 | N#Cc1ccsc1C(=O)NP(N)(N)=O [Example 23, N-(Diaminophosphinyl)-3-cyano-2-thiophenecarboxamide] | 2.2 nM | 1/5 | 
11 | NP(N)(=O)NC(=O)c1cc(Cl)sc1Cl [Example 25, N-(Diaminophosphinyl)-2,5-dichloro-3-thiophenecarboxamide] | 1.1 nM | 1/5 | 
12 | NP(N)(=O)NC(=O)c1ccsc1Br [Example 26, N-(Diaminophosphinyl)-2-bromo-3-thiophenecarboxamide] | 1.3 nM | 2/5 | 
13 | Cc1csc(C(=O)NP(N)(N)=O)c1 [Example 28, N-(Diaminophosphinyl)-4-methyl-2-thiophenecarboxamide] | 1.5 nM | 1/5 | 
14 | NP(N)(=O)NC(=O)c1csc(Cl)c1 [Example 30, N-(Diaminophosphinyl)-5-chloro-3-thiophenecarboxamide] | 4.3 nM | 1/5 | 
15 | Cc1cc(C(=O)NP(N)(N)=O)c(C)s1 [Example 32, N-(Diaminophosphinyl)-2,5-dimethyl-3-thiophenecarboxamide] | 8.7 nM | 2/5 | 
16 | Cc1occc1C(=O)NP(N)(N)=O [Example 40, N-(Diaminophosphinyl)-2-methyl-3-furancarboxamide] | 7.9 nM | 1/5 | 
17 | NP(N)(=O)NC(=O)c1coc(Br)c1 [Example 41, N-(Diaminophosphinyl)-5-bromo-3-furancarboxamide] | 7.7 nM | 1/5 | 
18 | CCc1ccc(C(=O)NP(N)(N)=O)o1 [Example 44, N-(Diaminophosphinyl)-5-ethyl-2-furancarboxamide] | 14 nM | 1/5 | 
19 | NP(N)(=O)NC(=O)c1ccoc1Cl [Example 45, N-(Diaminophosphinyl)-2-chloro-3-furancarboxamide] | 1.4 nM | 1/5 | 
20 | NP(N)(=O)NC(=O)c1coc(Cl)c1 [Example 46, N-(Diaminophosphinyl)-5-chloro-3-furancarboxamide] | 5.7 nM | 1/5 | 
21 | NP(N)(=O)NC(=O)COc1ccc(F)cc1 [Example 54, N-(Diaminophosphinyl)-4-fluorophenoxyacetamide] | 3.3 nM |  | Eradication Rate ([2]; 3 days for therapy): 1/5

Row | Structure (SMILES) | IC50 [1] | Eradication Rate ([2]; 2 days for therapy) | also measured
22 | NP(N)(=O)NC(=O)c1ccc(F)cc1 [Reference Example 1, N-(Diaminophosphinyl)-4-fluorobenzamide, reference compound] |  |  | IC50 ([1]; Bis-Tris pH 6.5, room temperature, 30 min preincubation, 10 min with urea, read-out: IC50, inhibitory effect against Helicobacter pylori-derived urease): 5 nM; Eradication Rate [3]: 4/5
23 | N#Cc1ccc(C(=O)NP(N)(N)=O)cc1 [Reference Example 17, N-(Diaminophosphinyl)-4-cyanobenzamide] | 5.4 nM |  | Eradication Rate [2, 4]: 1/5
24 | NP(N)(=O)NC(=O)c1ccc(Br)cc1 [Reference Example 22, N-(Diaminophosphinyl)-4-bromobenzamide] | 9.3 nM |  | Eradication Rate [2, 4]: 1/5
25 | NP(N)(=O)NC(=O)c1cccc([N+](=O)[O-])c1 [Reference Example 23, N-(Diaminophosphinyl)-3-nitrobenzamide] | 5.7 nM |  | Eradication Rate [2, 4]: 1/5
26 | NP(N)(=O)NC(=O)c1ccco1 [Reference Example 25, N-(Diaminophosphinyl)-2-furancarboxamide] | 1.9 nM |  | Eradication Rate [2, 4]: 1/5
27 | NP(N)(=O)NC(=O)c1ccoc1 [Reference Example 29, N-(Diaminophosphinyl)-3-furancarboxamide] | 5.9 nM |  | Eradication Rate [2, 4]: 2/5
28 | NP(N)(=O)NC(=O)c1ccc([N+](=O)[O-])o1 [Reference Example 30, N-(Diaminophosphiny1)-5-nitro-2-furancarboxamide] | 4.3 nM |  | Eradication Rate ([2]; 3 days for therapy): 2/5
29 | NP(N)(=O)NC(=O)c1cccc2ccccc12 [compound 26, N-(Diaminophosphinyl)-1-naphthalenecarboxamide] | 13 nM |  | 
30 | NP(N)(=O)NC(=O)c1cccc(Cl)c1 [compound 27, N-(Diaminophosphinyl)-3-chlorobenzamide] | 3.9 nM |  | 
31 | NP(N)(=O)NC(=O)c1ccc2ccccc2c1 [compound 28, N-(Diaminophosphinyl)-2-naphthalenecarboxamide] | 35 nM |  | 
32 | NP(N)(=O)NC(=O)C=Cc1ccc(Cl)cc1 [compound 31, N-(Diaminophosphinyl)-4-chlorocinnamamide] | 71 nM |  | 
33 | N#Cc1ccc(C=CC(=O)NP(N)(N)=O)cc1 [compound 32, N-(Diaminophosphinyl)-4-cyanocinnamamide] | 14 nM |  | 
34 | NP(N)(=O)NC(=O)C=Cc1ccccc1[N+](=O)[O-] [compound 33, N-(Diaminophosphinyl)-2-nitrocinnamamide] | 8.3 nM |  | 
35 | NP(N)(=O)NC(=O)C=Cc1ccc(F)cc1F [compound 34, N-(Diaminophosphinyl)-2,4-difluorocinnamamide] | 22 nM |  | 
36 | NP(N)(=O)NC(=O)C=Cc1cccc(F)c1 [compound 35, N-(Diaminophosphinyl)-3-fluorocinnamamide] | 17 nM |  | 
37 | NP(N)(=O)NC(=O)C=Cc1ccc(Cl)c(Cl)c1 [compound 36, N-(Diaminophosphinyl)-3,4-dichlorocinnamamide] | 8.9 nM |  | 
38 | NP(N)(=O)NC(=O)CCc1ccc(Cl)cc1 [compound 39, N-(Diaminophosphinyl)-3-(4-chlorophenyl)propionamide] | 5.9 nM |  | 
39 | N#Cc1ccc(CCC(=O)NP(N)(N)=O)cc1 [compound 40, N-(Diaminophosphinyl)-3-(4-cyanophenyl)propionamide] | 18 nM |  | 
40 | NP(N)(=O)NC(=O)CCc1cccc(F)c1 [compound 42, N-(Diaminophosphinyl)-3-(3-fluorophenyl) propionamide] | 22 nM |  | 
41 | Nc1ccccc1CCC(=O)NP(N)(N)=O [compound 43, N-(Diaminophosphinyl)-3-(2-aminophenyl) propionamide] | 71 nM |  | 
42 | Nc1ccc(OCC(=O)NP(N)(N)=O)cc1 [compound 44, N-(Diaminophosphinyl)-4-aminophenoxyacetamide] | 11 nM |  | 
